# Measured values from patent US20260078103A1, “ISOQUINOLONES AS PI3K INHIBITORS” (OnKure, Inc., priority 2022, published 2026).
# Read-outs that look alike come from different tables or passages of the source.
# What was measured:
# Type in all cases: cell-based
# [1] = system: phosphorylation of AKT (pAKT) in T47D cells expressing mutant PI3Ka (H1047R); experiment: In vitro cell pAKT (Ser473) HTRF, T47D cells
# Method in brief: (§1)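 Cells seeded on plates pre-stamped with 10-point compound dilutions, then grown 6 h at 37 °C (T47D in RPMI/10% FBS/insulin; SKBR3 in McCoy's 5a/10% FBS). Lysates read for pAKT Ser473 by HTRF after overnight antibody incubation. Inhibition normalised to 0.1% DMSO and 10 uM alpelisib; IC50 by four-parameter fit.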
# [2] = system: T47D cells expressing mutant PI3Ka (H1047R); experiment: In vitro cell proliferation, T47D cells (CellTiter-Glo); conditions: inhibition of proliferation, read-out: Avg T-47D EC50
# Method in brief: (§2)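 EC50 values derive from a four-parameter logistic fit of luminescence-based (CellTiter-Glo) inhibition, referenced to 0.1% DMSO and 10 uM Alpelisib controls. Compound exposure lasted 72 h at 37 °C.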
# [3] = system: SKBR3 cells express WT PI3Ka; experiment: In vitro cell proliferation, SKBR3 cells (CellTiter-Glo); conditions: inhibition of proliferation
# Method in brief: as §2
# [4] = system: phosphorylation of AKT (pAKT) in SKBR3 cells express WT PI3Ka; experiment: In vitro cell pAKT (Ser473) HTRF, SKBR3 cells
# Method in brief: as §1
# [5] = Homo sapiens, T47D, 6 h, cellular pAKT, T47D cells, mutant PI3Ka (H1047R), 6 hours, read-out: Avg T-47D IC50
# [6] = Homo sapiens, SK-BR-3, 6 h, cellular pAKT
# [7] = cellular pAKT, T47D cells, mutant PI3Ka (H1047R), 6 hours, read-out: Avg T-47D IC50
# [8] = Homo sapiens, T47D, 6 h, read-out: Avg T-47D IC50, cellular pAKT, T47D cells, mutant PI3Ka (H1047R), 6 hours
# [9] = Homo sapiens, SK-BR-3, cellular pAKT, 6 hours
"IC50 [1, 5] [nM]","EC50 ([2]; Homo sapiens, T47D, 72 h) [nM]","EC50 ([3]; Homo sapiens, SK-BR-3, 72 h) [nM]","IC50 [4, 6] [nM]",SMILES,"IC50 [1, 7] [nM]",EC50 ([2]; 72 hours) [nM],EC50 ([3]; 72 hours) [nM],"IC50 ([4]; cellular pAKT, 6 hours) [nM]","IC50 [1, 8] [nM]","IC50 [4, 9] [nM]"
1 to 500,1 to 500,> 15000,> 15000,"C[C@@H](Nc1ccccc1C(=O)O)c1cc(F)cc2c(=O)n(C)c(C3C[C@@H]3CF)cc12 (single isomer, unassigned) [Example 493]",,,,,,
,,> 15000,,"CC(Nc1ccccc1C(=O)O)c1cc(F)cc2c(=O)n(C)c(N3CCN(CC(F)(F)F)CC3)c(F)c12 (single isomer, unassigned) [Example 572]",1 to 500,1 to 500,,2000 to 15000,,
1 to 500,1 to 500,> 15000,> 15000,"C[C@@H](Nc1ccccc1C(=O)O)c1cc(F)cc2c(=O)n(C)c(C3C[C@@H]3CF)c(F)c12 (single isomer, unassigned) [Example 577]",,,,,,
500 to 2000,500 to 2000,> 15000,> 15000,"C[C@@H](Nc1ccccc1C(=O)O)c1cc(F)cc2c(=O)n(C)c(-c3cnc(-c4cc(=O)n(C)cc4F)c(F)c3)cc12 [Example 42, (R)-2-((1-(3-(3,5′-difluoro-1′-methyl-2′-oxo-1′,2′-dihydro-[2,4′-bipyridin]-5-yl)-7-fluoro-2-methyl-1-oxo-1,2-dihydroisoquinolin-5-yl)ethyl)amino)benzoic acid]",,,,,,
1 to 500,1 to 500,> 15000,> 15000,"Cc1cc([C@@H](C)Nc2ccccc2C(=O)O)c2cc(C3CC3)n(C)c(=O)c2c1 [Example 43, (R)-2-((1-(3-cyclopropyl-2,7-dimethyl-1-oxo-1,2-dihydroisoquinolin-5-yl)ethyl)amino)benzoic acid]",,,,,,
1 to 500,1 to 500,> 15000,> 15000,"C[C@@H](Nc1ccccc1C(=O)O)c1cc(F)cc2c(=O)n(C)c(-c3cnc(C4(C5CC5)CC4)nc3)cc12 [Example 47, (R)-2-((1-(3-(2-([1,1′-bi(cyclopropan)]-1-yl)pyrimidin-5-yl)-7-fluoro-2-methyl-1-oxo-1,2-dihydroisoquinolin-5-yl)ethyl)amino)benzoic acid]",,,,,,

# Continued, molecule first:
SMILES,"IC50 [1, 5] [nM]","EC50 ([2]; Homo sapiens, T47D, 72 h) [nM]","EC50 ([3]; Homo sapiens, SK-BR-3, 72 h) [nM]","IC50 [4, 6] [nM]","IC50 [1, 7] [nM]",EC50 ([2]; 72 hours) [nM],EC50 ([3]; 72 hours) [nM],"IC50 ([4]; cellular pAKT, 6 hours) [nM]","IC50 [1, 8] [nM]","IC50 [4, 9] [nM]"
"C[C@@H](Nc1ccccc1C(=O)O)c1cc(F)cc2c(=O)n(C)c(C3C[C@@H]3CF)cc12 (single isomer, unassigned) [Example 494]",,,,,1 to 500,1 to 500,> 15000,> 15000,,
"CC(Nc1ccccc1C(=O)O)c1cc(F)cc2c(=O)n(C)c(N3C4CCC3CN(CC(F)(F)F)C4)c(F)c12 (single isomer, unassigned) [Example 566]",,,2000 to 15000,,> 15000,2000 to 15000,,> 15000,,
"CC(Nc1ccccc1C(=O)O)c1cc(F)cc2c(=O)n(C)c(N3C4CCC3CN(CC(F)(F)F)C4)c(F)c12 (single isomer, unassigned) [Example 567]",,,,,1 to 500,1 to 500,2000 to 15000,2000 to 15000,,
"CC(Nc1ccccc1C(=O)O)c1cc(F)cc2c(=O)n(C)c(N3CCN(CC(F)(F)F)CC3)c(F)c12 (single isomer, unassigned) [Example 573]",,,,,2000 to 15000,2000 to 15000,> 15000,> 15000,,
"Cc1ccc(N[C@H](C)c2cc(F)cc3c(=O)n(C)c(C4CC4C4CC4)cc23)c(C(=O)O)n1 (stereo in doubt) [Example 45, 3-(((R)-1-(3-(trans-[1,1′-bi(cyclopropan)]-2-yl)-7-fluoro-2-methyl-1-oxo-1,2-dihydroisoquinolin-5-yl)ethyl)amino)-6-methylpicolinic acid]",,,,,500 to 2000,2000 to 15000,> 15000,> 15000,,
"Cc1cc(C(C)Nc2ccccc2C(=O)O)c2cc(-c3cc4cc(F)ccc4[nH]3)n(C)c(=O)c2c1 (stereo not drawn) [Example 7, 2-((1-(3-(5-fluoro-1H-indol-2-yl)-2,7-dimethyl-1-oxo-1,2-dihydroisoquinolin-5-yl)ethyl)amino)benzoic acid]",500 to 2000,2000 to 15000,> 15000,> 15000,,,,,,
"Cc1cc(C(C)Nc2ccccc2C(=O)O)c2cc(N3C[C@@H]4[C@@H](C#N)[C@@H]4C3)n(C)c(=O)c2c1 (stereo partly drawn) [Example 14, 2-((1-(3-((1R,5S,6r)-6-cyano-3-azabicyclo[3.1.0]hexan-3-yl)-2,7-dimethyl-1-oxo-1,2-dihydroisoquinolin-5-yl)ethyl)amino)benzoic acid]",,,> 15000,> 15000,1 to 500,1 to 500,,,,
"Cc1cc(C(C)Nc2ccccc2C(=O)O)c2cc(N3C[C@@H]4[C@@H](C#N)[C@@H]4C3)n(C)c(=O)c2c1 (stereo partly drawn) [Example 15, 2-((1-(3-((1R,5S,6r)-6-cyano-3-azabicyclo[3.1.0]hexan-3-yl)-2,7-dimethyl-1-oxo-1,2-dihydroisoquinolin-5-yl)ethyl)amino)benzoic acid]",,,,,2000 to 15000,500 to 2000,> 15000,> 15000,,
"Cc1cc([C@@H](C)Nc2ccc(Cl)nc2C(=O)O)c2cc(N3CCN(c4ccc(F)cc4)CC3)n(C)c(=O)c2c1 [Example 24, (R)-6-chloro-3-((1-(3-(4-(4-fluorophenyl)piperazin-1-yl)-2,7-dimethyl-1-oxo-1,2-dihydroisoquinolin-5-yl)ethyl)amino)picolinic acid]",,1 to 500,2000 to 15000,,,,,,1 to 500,2000 to 15000
"Cc1cc([C@@H](C)Nc2ccc(Cl)nc2C(=O)O)c2cc(N3CCN(Cc4ccc(F)cc4)CC3)n(C)c(=O)c2c1 [Example 25, (R)-6-chloro-3-((1-(3-(4-(4-fluorobenzyl)piperazin-1-yl)-2,7-dimethyl-1-oxo-1,2-dihydroisoquinolin-5-yl)ethyl)amino)picolinic acid]",1 to 500,1 to 500,2000 to 15000,2000 to 15000,,,,,,
"Cc1cc([C@@H](C)Nc2ccc(Cl)nc2C(=O)O)c2cc(-c3ccc(-c4ccc(F)cc4)nc3)n(C)c(=O)c2c1 [Example 26, (R)-6-chloro-3-((1-(3-(6-(4-fluorophenyl)pyridin-3-yl)-2,7-dimethyl-1-oxo-1,2-dihydroisoquinolin-5-yl)ethyl)amino)picolinic acid]",1 to 500,1 to 500,2000 to 15000,2000 to 15000,,,,,,
Cc1cc([C@@H](C)Nc2ccc(Cl)nc2C(=O)O)c2cc(C3=CCN(CC(F)(F)F)CC3)n(C)c(=O)c2c1 [Example 27],1 to 500,1 to 500,2000 to 15000,2000 to 15000,,,,,,
"CCn1c(N2CCC(C)(C)CC2)cc2c(C(C)Nc3ccccc3C(=O)O)cc(C)cc2c1=O (stereo not drawn) [Example 29, 2-((1-(3-(4,4-dimethylpiperidin-1-yl)-2-ethyl-7-methyl-1-oxo-1,2-dihydroisoquinolin-5-yl)ethyl)amino)benzoic acid]",,2000 to 15000,> 15000,,,,,,> 15000,> 15000
"Cc1cc([C@@H](C)Nc2ccccc2C(=O)O)c2cc(SCc3ccccc3)n(C)c(=O)c2c1 [Example 34, (R)-2-((1-(3-(benzylthio)-2,7-dimethyl-1-oxo-1,2-dihydroisoquinolin-5-yl)ethyl)amino)benzoic acid]",,1 to 500,> 15000,,,,,,1 to 500,> 15000
"C[C@@H](Nc1cccc(F)c1C(=O)O)c1cc(F)cc2c(=O)n(C)c(C34CC(C(F)(F)F)(C3)C4)cc12 [Example 39, (R)-2-fluoro-6-((1-(7-fluoro-2-methyl-1-oxo-3-(3-(trifluoromethyl)bicyclo[1.1.1]pentan-1-yl)-1,2-dihydroisoquinolin-5-yl)ethyl)amino)benzoic acid]",1 to 500,1 to 500,> 15000,> 15000,,,,,,
"Cc1cc([C@@H](C)Nc2ccccc2C(=O)O)c2cc(OCC(C)C)n(C)c(=O)c2c1 [Example 40, (R)-2-((1-(3-isobutoxy-2,7-dimethyl-1-oxo-1,2-dihydroisoquinolin-5-yl)ethyl)amino)benzoic acid]",1 to 500,500 to 2000,> 15000,> 15000,,,,,,
"Cc1cc([C@@H](C)Nc2ccc(F)cc2C(=O)O)c2c(F)c(N3CCN(CC(F)(F)F)CC3)n(C)c(=O)c2c1 [Example 41, (R)-5-fluoro-2-((1-(4-fluoro-2,7-dimethyl-1-oxo-3-(4-(2,2,2-trifluoroethyl)piperazin-1-yl)-1,2-dihydroisoquinolin-5-yl)ethyl)amino)benzoic acid]",1 to 500,1 to 500,2000 to 15000,> 15000,,,,,,
"CCON1CC2CCC(C1)N2c1cc2c([C@@H](C)Nc3ccccc3C(=O)O)cc(F)cc2c(=O)n1C [Example 44, 2-(((1R)-1-(3-(3-ethoxy-3,8-diazabicyclo[3.2.1]octan-8-yl)-7-fluoro-2-methyl-1-oxo-1,2-dihydroisoquinolin-5-yl)ethyl)amino)benzoic acid]",1 to 500,1 to 500,2000 to 15000,2000 to 15000,,,,,,
